Source: USRE42890E1, “Furazanobenzimidazoles” (Basilea Pharmaceutica AG, priority 2003, dated 2011)

Legend:
HeLa = test: MTS proliferation assay, HeLa; assay type: cell-based, human; details: 72 h incubation, read-out: MTS proliferation assay IC 50 HeLa
How it was run: (§1)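 Proliferation: RPMI-1640/FCS complete medium, 37 °C, 7.5% CO2, cells plated 24 h pre-dose; compounds at 10, 3, 1, 0.3 μM final for 72 h; MTS, 492 nm.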

Jurkat = test: MTS proliferation assay, Jurkat; assay type: cell-based, human; details: 72 h incubation, read-out: MTS proliferation assay IC 50 Jurkat
How it was run: as §1

[1] = test system: adherent cells or suspension cells; test: Hoechst 33342 nuclear staining (fraction of apoptotic nuclei); assay type: cell-based; set-up: key: 0 relating to no activity; 1 relating to weak activity comprising less than 70% of the cells; score 2 relating to strong activity comprising more than 70% of the cells
MRC5 = test: MTS proliferation assay, MRC5; assay type: cell-based; details: MRC5, 72 h incubation; read-out: MTS proliferation assay IC 50 MRC5
How it was run: (§2)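 Viability after 72 h compound exposure at 10, 3, 1 and 0.3 μM final was scored by MTS absorbance (492 nm, 3 h reagent incubation), with cells kept in RPMI-1640 containing 5% or 10% fetal calf serum.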

Jily = test: MTS proliferation assay, Jily; assay type: cell-based; details: 72 h incubation, read-out: MTS proliferation assay IC 50 Jily
How it was run: as §2

HT1080 = test: MTS proliferation assay, HT1080; assay type: cell-based, human; details: HT1080, 72 h incubation; read-out: MTS proliferation assay IC 50 HT1080
How it was run: as §1

SMILES	IC50 (HeLa)	IC50 (Jurkat)	IC50 (HT1080)	Hoechst 33342 nuclear staining score ([1]; HeLa, conc 0.01 μm)	Hoechst 33342 nuclear staining score ([1]; HeLa, conc 0.1 μm)	Hoechst 33342 nuclear staining score ([1]; HeLa, conc 1 μm)	Hoechst 33342 nuclear staining score ([1]; Jily, conc 0.01 μm)	Hoechst 33342 nuclear staining score ([1]; Jily, conc 0.1 μm)	Hoechst 33342 nuclear staining score ([1]; Jily, conc 1 μm)	Hoechst 33342 nuclear staining score ([1]; Jurkat, conc 0.01 μm)	Hoechst 33342 nuclear staining score ([1]; Jurkat, conc 0.1 μm)	Hoechst 33342 nuclear staining score ([1]; Jurkat, conc 1 μm)	Hoechst 33342 nuclear staining score ([1]; MRC5, conc 0.01 μm)	Hoechst 33342 nuclear staining score ([1]; MRC5, conc 0.1 μm)	Hoechst 33342 nuclear staining score ([1]; MRC5, conc 1 μm)	Hoechst 33342 nuclear staining score ([1]; PBLs, conc 0.01 μm)	Hoechst 33342 nuclear staining score ([1]; PBLs, conc 0.1 μm)	Hoechst 33342 nuclear staining score ([1]; PBLs, conc 1 μm)	IC50 (MRC5)	IC50 (Jily)	other results
N#CCCNc1nonc1-c1nc2ccccc2n1CC(=O)c1ccc(N)nc1 [Example 79]	< 10 nM	< 10 nM	< 10 nM	2 (score 2 relating to strong activity comprising more than 70% of the cells)	2 (score 2 relating to strong activity comprising more than 70% of the cells)	2 (score 2 relating to strong activity comprising more than 70% of the cells)	2 (score 2 relating to strong activity comprising more than 70% of the cells)	2 (score 2 relating to strong activity comprising more than 70% of the cells)	2 (score 2 relating to strong activity comprising more than 70% of the cells)	2 (score 2 relating to strong activity comprising more than 70% of the cells)	2 (score 2 relating to strong activity comprising more than 70% of the cells)	2 (score 2 relating to strong activity comprising more than 70% of the cells)	1 (1 relating to weak activity comprising less than 70% of the cells)	2 (score 2 relating to strong activity comprising more than 70% of the cells)	2 (score 2 relating to strong activity comprising more than 70% of the cells)	0	0	0	< 10 nM	< 10 nM	Hoechst 33342 nuclear staining score ([1]; H460, conc 0.01 μm): 2 (score 2 relating to strong activity comprising more than 70% of the cells); Hoechst 33342 nuclear staining score ([1]; H460, conc 0.1 μm): 2 (score 2 relating to strong activity comprising more than 70% of the cells); Hoechst 33342 nuclear staining score ([1]; H460, conc 1 μm): 2 (score 2 relating to strong activity comprising more than 70% of the cells)
COc1ccc(OCn2c(-c3nonc3N)nc3ccccc32)cc1 [Example 90]	100 to 1000 nM	100 to 1000 nM	100 to 1000 nM	0	0	1 (1 relating to weak activity comprising less than 70% of the cells)	0	0	1 (1 relating to weak activity comprising less than 70% of the cells)	0	0	2 (score 2 relating to strong activity comprising more than 70% of the cells)	0	0	1 (1 relating to weak activity comprising less than 70% of the cells)	0	0	0	100 to 1000 nM	100 to 1000 nM	
Nc1nonc1-c1nc2ccccc2n1COc1ccc(Cl)c(Cl)c1 [Example 92]	10 to 100 nM	10 to 100 nM	10 to 100 nM	0	2 (score 2 relating to strong activity comprising more than 70% of the cells)	2 (score 2 relating to strong activity comprising more than 70% of the cells)	0	2 (score 2 relating to strong activity comprising more than 70% of the cells)	2 (score 2 relating to strong activity comprising more than 70% of the cells)	0	2 (score 2 relating to strong activity comprising more than 70% of the cells)	2 (score 2 relating to strong activity comprising more than 70% of the cells)	0	2 (score 2 relating to strong activity comprising more than 70% of the cells)	2 (score 2 relating to strong activity comprising more than 70% of the cells)	0	0	0	100 to 1000 nM	10 to 100 nM	Hoechst 33342 nuclear staining score ([1]; H460, conc 0.01 μm): 0; Hoechst 33342 nuclear staining score ([1]; H460, conc 0.1 μm): 2 (score 2 relating to strong activity comprising more than 70% of the cells); Hoechst 33342 nuclear staining score ([1]; H460, conc 1 μm): 2 (score 2 relating to strong activity comprising more than 70% of the cells)

Continued, in another order:

IC50 (HeLa)	IC50 (Jurkat)	IC50 (HT1080)	SMILES	Hoechst 33342 nuclear staining score ([1]; HeLa, conc 0.01 μm)	Hoechst 33342 nuclear staining score ([1]; HeLa, conc 0.1 μm)	Hoechst 33342 nuclear staining score ([1]; HeLa, conc 1 μm)	Hoechst 33342 nuclear staining score ([1]; Jily, conc 0.01 μm)	Hoechst 33342 nuclear staining score ([1]; Jily, conc 0.1 μm)	Hoechst 33342 nuclear staining score ([1]; Jily, conc 1 μm)	Hoechst 33342 nuclear staining score ([1]; Jurkat, conc 0.01 μm)	Hoechst 33342 nuclear staining score ([1]; Jurkat, conc 0.1 μm)	Hoechst 33342 nuclear staining score ([1]; Jurkat, conc 1 μm)	Hoechst 33342 nuclear staining score ([1]; MRC5, conc 0.01 μm)	Hoechst 33342 nuclear staining score ([1]; MRC5, conc 0.1 μm)	Hoechst 33342 nuclear staining score ([1]; MRC5, conc 1 μm)	Hoechst 33342 nuclear staining score ([1]; PBLs, conc 0.01 μm)	Hoechst 33342 nuclear staining score ([1]; PBLs, conc 0.1 μm)	Hoechst 33342 nuclear staining score ([1]; PBLs, conc 1 μm)	IC50 (MRC5)	IC50 (Jily)	other results
100 to 1000 nM	100 to 1000 nM	100 to 1000 nM	Nc1nonc1-c1nc2ccccc2n1COc1ccc(Cl)cc1 [Example 88]	0	0	2 (score 2 relating to strong activity comprising more than 70% of the cells)	0	0	1 (1 relating to weak activity comprising less than 70% of the cells)	0	0	2 (score 2 relating to strong activity comprising more than 70% of the cells)	0	0	0	0	0	0	100 to 1000 nM	100 to 1000 nM	
10 to 100 nM	10 to 100 nM	10 to 100 nM	Nc1nonc1-c1nc2ccccc2n1COc1ccc(Br)cc1 [Example 89]	0	2 (score 2 relating to strong activity comprising more than 70% of the cells)	2 (score 2 relating to strong activity comprising more than 70% of the cells)	0	2 (score 2 relating to strong activity comprising more than 70% of the cells)	2 (score 2 relating to strong activity comprising more than 70% of the cells)	0	2 (score 2 relating to strong activity comprising more than 70% of the cells)	2 (score 2 relating to strong activity comprising more than 70% of the cells)	0	2 (score 2 relating to strong activity comprising more than 70% of the cells)	2 (score 2 relating to strong activity comprising more than 70% of the cells)	0	0	0	100 to 1000 nM	10 to 100 nM	Hoechst 33342 nuclear staining score ([1]; H460, conc 0.01 μm): 0; Hoechst 33342 nuclear staining score ([1]; H460, conc 0.1 μm): 2 (score 2 relating to strong activity comprising more than 70% of the cells); Hoechst 33342 nuclear staining score ([1]; H460, conc 1 μm): 2 (score 2 relating to strong activity comprising more than 70% of the cells)
100 to 1000 nM	100 to 1000 nM	100 to 1000 nM	Nc1nonc1-c1nc2ccccc2n1COc1ccc(C(F)(F)F)cc1 [Example 91]	0	0	0	0	0	2 (score 2 relating to strong activity comprising more than 70% of the cells)	0	0	2 (score 2 relating to strong activity comprising more than 70% of the cells)	0	0	0	0	0	0	100 to 1000 nM	100 to 1000 nM	
